Experiments:
[1] = Antiprion activity against mouse prion protein RML infected mouse ScN2a cells assessed as reduction of PrPSc level by Western blot method; type: cell-based
[2] = Cytotoxicity against mouse N2A cells assessed as maximal tolerant concentration; type: cell-based; details: read-out: MTD
[3] = Solubility of the compound in phosphate buffer at 50 uM; type: physicochemical
[4] = Effective permeability of the compound at pH 7.4 at 30 to 50 uM by PAMPA assay; type: ADME; details: read-out: Peff
ScN2a = assay: Antiprion activity against mouse prion protein RML infected mouse ScN2a cells assessed as drug level required for more than 99 percent reduction of PrPSc level by Western blot method; type: cell-based
[5] = target: Major prion protein (Homo sapiens) (UniProt P04156); assay: Binding affinity to truncated human PrP 121-231 at 50 uM by surface plasmon resonance method
[6] = Antiprion activity against mouse prion protein 22L infected mouse N167 cells assessed as reduction of PrPSc level by Western blot method; type: cell-based
N167 = assay: Antiprion activity against mouse prion protein 22L infected mouse N167 cells assessed as drug level required for more than 99 percent reduction of PrPSc level by Western blot method; type: cell-based
[7] = Antiprion activity against human prion protein Fukuoka-1 infected mouse F3 cells assessed as reduction of PrPSc level by Western blot method; type: cell-based; details: N2a #58 F3
N2a #58 F3 = assay: Antiprion activity against human prion protein Fukuoka-1 infected mouse F3 cells assessed as drug level required for more than 99 percent reduction of PrPSc level by Western blot method; type: cell-based
human MDR1 [8] = type: ADME, cell-based, Canis lupus familiaris; details: dog, MDCK-MDR1
human MDR1 [9] = type: ADME, cell-based, Canis lupus familiaris; details: dog, MDCK-MDR1; remark: listed apart in the source
MDCK [10] = assay: Permeability from apical to basolateral side of in wild type MDCK cells assessed as cell retention at 10 uM after 2 hrs; type: ADME, cell-based, Canis lupus familiaris; details: dog
MDCK [11] = assay: Permeability from basolateral to apical side of in wild type MDCK cells assessed as adsorption on transwell at 10 uM after 2 hrs; type: ADME, cell-based, Canis lupus familiaris; details: dog
MDCK [12] = type: ADME, cell-based, Canis lupus familiaris; details: dog, 2 h, 10 µM
MDCK [13] = type: ADME, cell-based, Canis lupus familiaris; details: dog, 2 h, 10 µM; remark: listed apart in the source
MDCK [14] = assay: Permeability from basolateral to apical side of in wild type MDCK cells assessed as cell retention at 10 uM after 2 hrs; type: ADME, cell-based, Canis lupus familiaris; details: dog
MDCK [15] = assay: Permeability from apical to basolateral side of in P-glycoprotein-mediated MDCK cells over expressing human MDR1 assessed as cell retention at 10 uM after 2 hrs; type: ADME, cell-based, Canis lupus familiaris; details: dog
MDCK [16] = assay: Permeability from basolateral to apical side of in P-glycoprotein-mediated MDCK cells over expressing human MDR1 assessed as cell retention at 10 uM after 2 hrs; type: ADME, cell-based, Canis lupus familiaris; details: dog
MDCK [17] = assay: Permeability from apical to basolateral side of in wild type MDCK cells assessed as adsorption on transwell at 10 uM after 2 hrs; type: ADME, cell-based, Canis lupus familiaris; details: dog

Row | Structure (SMILES) | EC50 [1] [µM] | MNTC [2] [µM] | Papp at up to 50 µM [4] [nm/s] | Activity (ScN2a) [µM] | RUmax [5] [%] | EC50 [6] [µM] | Activity (N167) [µM] | EC50 [7] [µM] | Activity (N2a #58 F3) [µM] | other results
1 | COc1ccc2nc3cc(Cl)ccc3c(Nc3ccccc3)c2c1 | 0.54 | 5 | – | – | – | – | – | – | – | solubility [3]: Insoluble
2 | Cn1c(=O)c2c(ncn2C)n(C)c1=O [CAFFEINE] | – | – | 24.6 | – | – | – | – | – | – | –
3 | CN1CCN(c2ccc(Nc3c4c(nc5cc(Cl)ccc35)CCCC4)cc2)CC1 | 0.082 | > 10 | – | 1 | 127 | – | – | – | – | –
4 | Clc1ccc2c(NC3CCN(Cc4ccccc4)CC3)ccnc2c1 | 0.15 | > 10 | – | 1 | 114 | 0.23 | 2 | 1.2 | 3 | –
5 | COc1ccc2nc3cc(Cl)ccc3c(NC3CCN(CCc4ccccc4)CC3)c2c1 | 0.13 | 2 | 76.8 | 0.5 | 174 | 0.23 | 1 | 0.19 | 2 | –
6 | COc1ccc2nc3cc(Cl)ccc3c(NCCCN(C)C)c2c1 | – | – | 133 | – | 164 | – | – | – | – | –
7 | COc1ccc2nc3cc(Cl)ccc3c(N(C)c3ccccc3)c2c1 | 2.51 | 8 | – | 5 | 43.2 | – | – | – | – | –
8 | COc1ccc2nc3cc(Cl)ccc3c(NC3CCN(CCc4ccc(C)cc4)CC3)c2c1 | 0.076 | 3 | 73.9 | 1 | 148 | 0.3 | 1 | 0.69 | 3 | –
9 | COc1ccc2nc3cc(Cl)ccc3c(N)c2c1 | – | – | 148 | – | 139 | – | – | – | – | –
10 | COc1ccc2nc3cc(Cl)ccc3c(NCC#CCN3CCN(C)CC3)c2c1 | 0.027 | 8 | 115 | 1 | – | 0.99 | 3 | – | – | solubility [3]: Insoluble
11 | CCN(CC)CCCC(C)Nc1c2ccc(Cl)cc2nc2ccc(OC)cc12 (stereo not given) [QUINACRINE] | 0.23 | 2.5 | 193 | 0.8 | 87.3 | 0.59 | – | – | – | Papp A→B at 2 h, 10 µM (human MDR1 [8]): 12.3 nm/s; Papp B→A at 2 h, 10 µM (human MDR1 [9]): 67 nm/s; permeability (MDCK [10]): 80.2%; permeability (MDCK [11]): 3.2%; permeability (MDCK [12]): 5.5%; permeability (MDCK [13]): 3.9%; permeability (MDCK [14]): 27.7%; permeability (MDCK [15]): 35.5%; permeability (MDCK [16]): 24.5%; permeability (MDCK [17]): 5.3%
12 | CCN1CCN(c2ccc(Nc3c4ccc(Cl)cc4nc4ccc(OC)cc34)cc2)CC1 | 0.08 | 3 | 61.3 | 1 | 194 | 0.96 | – | – | – | –
13 | COc1ccc2nc3cc(Cl)ccc3c(NC3CCN(Cc4ccc(C)cc4)CC3)c2c1 | 0.15 | 5 | – | 3 | 69.8 | 0.62 | 1 | 0.63 | 3 | –
14 | Clc1ccc2c(NC3CCN(Cc4ccccc4)CC3)c3c(nc2c1)CCCC3 | 0.54 | 5 | – | 1 | 138 | 0.42 | 3 | 1.19 | 5 | –
15 | CN1CCN(c2ccc(Nc3ccnc4cc(Cl)ccc34)cc2)CC1 | 0.14 | 10 | – | 1 | 165 | 0.53 | 2 | 2.04 | – | –
16 | CCN(CC)CCCNc1c2ccc(Cl)cc2nc2ccc(OC)cc12 | – | – | 220 | – | 162 | – | – | – | – | –
17 | COc1ccc2nc3cc(Cl)ccc3c(NC3CCN(CCCc4ccccc4)CC3)c2c1 | 0.093 | 4 | – | 1 | 115 | 0.32 | 1 | 1.04 | 3 | –
18 | CCN(CC)CCNc1c2ccc(Cl)cc2nc2ccc(OC)cc12 | – | – | 210 | – | 153 | – | – | – | – | –
19 | COc1ccc2nc3cc(Cl)ccc3c(Nc3ccc(C(=O)N4CCN(C)CC4)cc3)c2c1 | 1.23 | 12 | – | 5 | 232 | 4.2 | 7 | 4.1 | – | –
20 | COc1ccc2nc3cc(Cl)ccc3c(Nc3ccc(CN4CCN(C)CC4)cc3)c2c1 | 0.06 | 4 | – | 0.5 | 207 | 0.35 | 2 | 0.86 | 3 | –
21 | COc1ccc2nc3cc(Cl)ccc3c(Nc3ccc(N4CCN(C(C)=O)CC4)cc3)c2c1 | 0.035 | 5 | 87.9 | 0.1 | 210 | – | – | – | – | –
22 | C=C[C@H]1C[N@@]2CC[C@H]1C[C@@H]2[C@@H](O)c1ccnc2ccc(OC)cc12 [QUINIDINE] | – | – | – | – | – | – | – | – | – | Papp [4]: 115 nm/s
23 | COc1ccc(CN2CCC(Nc3c4ccc(Cl)cc4nc4ccc(OC)cc34)CC2)cc1 | 0.082 | 10 | 75.4 | 1.5 | 160 | 0.52 | 2 | – | – | –
24 | COc1ccc2nc3cc(Cl)ccc3c(NC3CCN(Cc4ccc(C#N)cc4)CC3)c2c1 | 0.55 | 5 | 91.5 | 1 | 109 | 0.14 | 1 | – | – | –
25 | COc1ccc2nc3cc(Cl)ccc3c(NC3CCN(Cc4ccc(Cl)cc4)CC3)c2c1 | 0.28 | 12 | 155 | 1 | 98.3 | 0.34 | 3 | – | – | –
26 | COc1ccc2nc3cc(Cl)ccc3c(NC3CCN(Cc4ccccc4)CC3)c2c1 | 0.42 | 2 | – | 1 | 65.4 | 0.49 | 1.5 | 0.8 | – | –
27 | COc1ccc2nc3cc(Cl)ccc3c(Nc3ccc(CN4CCCCC4)cc3)c2c1 | 0.099 | 5 | 52.8 | 0.5 | 144 | 0.51 | 1 | 0.64 | 3 | –
28 | COc1ccc2nc3cc(Cl)ccc3c(NC3CC4CCC(C3)N4Cc3ccccc3)c2c1 (stereo not given) | 0.054 | 2 | 83.1 | 2 | – | 0.35 | 1 | 0.54 | 1.5 | solubility [3]: Insoluble
29 | CCN(CC)CCCCNc1c2ccc(Cl)cc2nc2ccc(OC)cc12 | – | – | 164 | – | 178 | – | – | – | – | –

— ChEMBL document CHEMBL2150853 (Eur J Med Chem, 2011)
